Assay results published in US20250145609A1, “3-SUBSTITUTED PYRIDAZINE COMPOUNDS AS SMARCA2 AND/OR SMARCA4 DEGRADERS” (Aurigene Oncology Limited, priority 2022, published 2025).

Assays:
Assay type in all cases: cell-based
SMARCA2 = biological target: T1, SMARCA2 (Homo sapiens, UniProt P51531); test: SMARCA2 degradation in VCaP cells by Western blot; conditions: at 100 nM, 16 hours
T1 construct: endogenous in cells; host or cells: VCaP (ATCC CRL-2876)
Outline: (§1)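 VCaP cells in DMEM treated 16 h with compound at a single 100 nM dose (DMSO ≤0.3%). Lysates were probed by Western blot for SMARCA2 or SMARCA4, with beta-tubulin as loading control. Percent degradation was calculated from band signals.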

VCaP cells = test: Anti proliferative activity in VCaP cell line by CellTiter Glo assay; conditions: Homo sapiens, VCaP, 192 h, 8 days incubation, CellTiter Glo luminescence
Procedure: Example-P1: Determination of Anti Proliferative Activity of Compounds in Cell Lines VCaP by Cell Titer Glo©(Promega) Assay
VCaP (ATCC CRL-2876) cells were seeded in 96 well plate flat black clear bottom plates (Corning, Cat. No 3904) using complete DMEM Medium. Next day, compounds listed in the present invention were added to cells from 10 mM stocks made in DMSO (Sigma Cat no. D2650). Each concentration of compound was tested in triplicate with DMSO concentration at a final percentage not exceeding 0.3 in the cells. After the incubation of VCaP cells with compound for 8 days assay was terminated using 50 μl of CellTiter Glo© reagent (Promega, Cat. no G7572). CellTiter-Glo® Luminescent reagent determines the number of viable cells based on quantitation of ATP present which is an indicator of cell number and metabolic activity. Luminescence readings were taken in Victor-3 instrument. Percent inhibition of proliferation was calculated using formula, % inhibition=100−(luminescence value of test/luminescence value of DMSO control)*100. DMSO control (0%)=Cells in complete media with DMSO; blank=Media alone containing DMSO. EC50 was calculated using graph pad prism software.
Herein the group “A” refers to EC50 values lower than l0 nM, group “B” refers to EC50 values between l0 nM-100 nM (both inclusive) and group “C” refers to EC50 values greater than 100 nM.

SMARCA4 = biological target: T2, SMARCA4 (Homo sapiens, UniProt P51532); test: SMARCA4 degradation in VCaP cells by Western blot; conditions: VCaP, 16 h, at 100 nM
T2 construct: endogenous in cells; host or cells: VCaP (ATCC CRL-2876)
Outline: as §1

T1 sequence (P51531 whole entry): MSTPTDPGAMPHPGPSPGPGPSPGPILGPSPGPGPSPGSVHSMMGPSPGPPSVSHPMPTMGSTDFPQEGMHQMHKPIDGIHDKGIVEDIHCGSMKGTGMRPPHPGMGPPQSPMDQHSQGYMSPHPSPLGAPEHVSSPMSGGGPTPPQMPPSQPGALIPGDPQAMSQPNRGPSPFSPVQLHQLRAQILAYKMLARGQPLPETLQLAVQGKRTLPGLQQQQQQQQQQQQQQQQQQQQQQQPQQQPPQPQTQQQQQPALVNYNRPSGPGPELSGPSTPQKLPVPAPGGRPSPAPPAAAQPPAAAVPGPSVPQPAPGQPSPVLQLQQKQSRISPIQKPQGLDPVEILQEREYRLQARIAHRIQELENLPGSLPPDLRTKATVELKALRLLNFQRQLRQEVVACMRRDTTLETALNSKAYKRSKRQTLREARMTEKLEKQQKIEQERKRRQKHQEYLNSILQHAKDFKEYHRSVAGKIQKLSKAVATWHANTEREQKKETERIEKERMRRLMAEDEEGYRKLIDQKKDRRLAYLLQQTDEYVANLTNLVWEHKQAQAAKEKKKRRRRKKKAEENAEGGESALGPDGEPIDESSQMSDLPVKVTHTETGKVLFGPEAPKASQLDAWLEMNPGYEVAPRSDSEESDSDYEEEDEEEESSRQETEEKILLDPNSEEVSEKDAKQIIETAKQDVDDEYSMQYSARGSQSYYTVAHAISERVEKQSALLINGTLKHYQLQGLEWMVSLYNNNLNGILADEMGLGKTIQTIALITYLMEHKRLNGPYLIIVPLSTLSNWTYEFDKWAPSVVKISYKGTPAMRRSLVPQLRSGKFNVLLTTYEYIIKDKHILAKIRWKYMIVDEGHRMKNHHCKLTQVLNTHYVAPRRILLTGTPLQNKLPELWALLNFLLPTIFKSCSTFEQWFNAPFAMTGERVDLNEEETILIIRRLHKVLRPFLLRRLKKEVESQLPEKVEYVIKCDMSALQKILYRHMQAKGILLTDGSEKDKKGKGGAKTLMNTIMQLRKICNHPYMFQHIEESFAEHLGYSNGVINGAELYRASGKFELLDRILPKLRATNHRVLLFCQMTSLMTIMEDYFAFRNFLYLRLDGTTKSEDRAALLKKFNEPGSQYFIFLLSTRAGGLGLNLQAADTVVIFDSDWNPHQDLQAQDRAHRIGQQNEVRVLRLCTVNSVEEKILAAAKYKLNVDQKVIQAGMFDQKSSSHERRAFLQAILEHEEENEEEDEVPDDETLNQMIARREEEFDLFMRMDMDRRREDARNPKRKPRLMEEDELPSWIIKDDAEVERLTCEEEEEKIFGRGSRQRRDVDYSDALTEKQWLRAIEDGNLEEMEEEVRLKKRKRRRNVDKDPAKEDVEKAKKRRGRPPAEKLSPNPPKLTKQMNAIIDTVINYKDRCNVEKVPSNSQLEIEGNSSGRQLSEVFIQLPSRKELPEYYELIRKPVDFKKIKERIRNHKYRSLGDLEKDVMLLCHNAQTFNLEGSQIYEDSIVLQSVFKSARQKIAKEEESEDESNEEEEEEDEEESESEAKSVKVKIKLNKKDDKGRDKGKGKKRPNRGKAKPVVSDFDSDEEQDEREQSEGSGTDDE
T2 sequence (P51532 whole entry): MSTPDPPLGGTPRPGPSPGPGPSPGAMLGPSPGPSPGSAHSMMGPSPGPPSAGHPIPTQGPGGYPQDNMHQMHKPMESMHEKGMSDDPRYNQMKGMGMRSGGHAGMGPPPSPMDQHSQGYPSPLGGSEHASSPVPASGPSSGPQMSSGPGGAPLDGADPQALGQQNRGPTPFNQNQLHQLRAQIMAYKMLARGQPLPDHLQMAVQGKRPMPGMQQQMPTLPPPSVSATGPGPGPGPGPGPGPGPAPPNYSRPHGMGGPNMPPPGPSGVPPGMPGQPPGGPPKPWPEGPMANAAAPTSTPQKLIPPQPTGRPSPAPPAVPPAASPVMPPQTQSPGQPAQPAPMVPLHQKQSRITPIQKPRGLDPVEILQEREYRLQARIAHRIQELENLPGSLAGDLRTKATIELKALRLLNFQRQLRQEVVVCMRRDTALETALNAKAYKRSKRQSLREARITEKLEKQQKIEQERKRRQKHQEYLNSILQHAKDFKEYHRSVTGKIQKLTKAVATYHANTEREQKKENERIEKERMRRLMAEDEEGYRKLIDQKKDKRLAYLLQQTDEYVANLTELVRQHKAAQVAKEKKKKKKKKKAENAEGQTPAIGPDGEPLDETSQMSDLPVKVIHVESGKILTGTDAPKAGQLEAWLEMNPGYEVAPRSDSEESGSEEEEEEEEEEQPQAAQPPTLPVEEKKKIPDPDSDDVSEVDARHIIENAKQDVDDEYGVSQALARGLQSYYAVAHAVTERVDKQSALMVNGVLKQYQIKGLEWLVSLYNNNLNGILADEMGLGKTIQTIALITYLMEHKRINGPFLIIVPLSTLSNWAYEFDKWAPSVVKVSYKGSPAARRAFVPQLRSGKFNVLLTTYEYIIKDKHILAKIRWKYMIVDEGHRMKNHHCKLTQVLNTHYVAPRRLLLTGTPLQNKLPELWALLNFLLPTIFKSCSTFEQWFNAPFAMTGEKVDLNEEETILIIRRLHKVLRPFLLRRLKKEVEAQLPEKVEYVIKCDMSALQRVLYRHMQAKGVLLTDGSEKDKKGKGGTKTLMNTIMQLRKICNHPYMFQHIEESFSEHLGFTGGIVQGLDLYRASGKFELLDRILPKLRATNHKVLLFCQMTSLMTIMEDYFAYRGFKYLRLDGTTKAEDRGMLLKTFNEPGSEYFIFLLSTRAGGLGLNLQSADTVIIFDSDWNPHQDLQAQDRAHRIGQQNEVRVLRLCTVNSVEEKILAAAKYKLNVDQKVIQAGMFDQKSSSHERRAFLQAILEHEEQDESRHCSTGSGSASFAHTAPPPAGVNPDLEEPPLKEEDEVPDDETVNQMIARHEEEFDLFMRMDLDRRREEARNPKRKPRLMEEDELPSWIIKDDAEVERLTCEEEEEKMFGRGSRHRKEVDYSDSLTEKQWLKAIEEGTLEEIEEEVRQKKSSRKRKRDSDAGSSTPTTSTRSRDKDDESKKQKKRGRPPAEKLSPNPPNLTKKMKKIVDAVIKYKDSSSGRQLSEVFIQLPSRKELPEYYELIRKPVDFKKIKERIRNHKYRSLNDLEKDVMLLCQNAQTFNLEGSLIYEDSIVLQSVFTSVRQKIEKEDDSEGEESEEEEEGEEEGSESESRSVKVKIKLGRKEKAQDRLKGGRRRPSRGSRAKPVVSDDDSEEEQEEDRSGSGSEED

## Cc1ncsc1-c1ccc([C@H](C)NC(=O)[C@@H]2C[C@@H](O)CN2C(=O)[C@@H](NC(=O)CC#Cc2ccc(-c3cc(-c4ccccc4O)nnc3N)cc2)C(C)(C)C)cc1 [Compound 21, (2S,4R)-1-((S)-2-(4-(4-(3-amino-6-(2-hydroxyphenyl)pyridazin-4-yl)phenyl)but-3-ynamido)-3,3-dimethylbutanoyl)-4-hydroxy-N-((S)-1-(4-(4-methylthiazol-5-yl)phenyl)ethyl)pyrrolidine-2-carboxamide]
SMARCA2
  Percent degradation SMARCA2: 97%
VCaP cells
  EC50: > 100 nM
SMARCA4
  Percent SMARCA4 degradation at 0.1 µM: 71%

## Cc1ncsc1-c1ccc([C@H](C)NC(=O)[C@@H]2C[C@@H](O)CN2C(=O)[C@@H](NC(=O)Cn2ccc(-c3ccc(-c4cc(-c5ccccc5O)nnc4N)cc3)c2)C(C)(C)C)cc1 [Compound 50, (2S,4R)-1-((S)-2-(2-(3-(4-(3-amino-6-(2-hydroxyphenyl)pyridazin-4-yl)phenyl)-1H-pyrrol-1-yl)acetamido)-3,3-dimethylbutanoyl)-4-hydroxy-N-((S)-1-(4-(4-methylthiazol-5-yl)phenyl)ethyl)pyrrolidine-2-carboxamide]
SMARCA2
  Percent degradation SMARCA2: 85%
VCaP cells
  EC50: > 100 nM
SMARCA4
  Percent SMARCA4 degradation at 0.1 µM: 0%

## Cc1ncsc1-c1ccc([C@H](C)NC(=O)[C@@H]2C[C@@H](O)CN2C(=O)[C@@H](NC(=O)CN2CCC(c3ccc(-c4cc(-c5ccccc5O)nnc4N)cc3)CC2C)C(C)(C)C)cc1 (single isomer, unassigned) [Compound 36]
SMARCA2
  Percent degradation SMARCA2: 99%
VCaP cells
  EC50: < 10 nM
SMARCA4
  Percent SMARCA4 degradation at 0.1 µM: 86%

## Cc1ncsc1-c1ccc([C@H](C)NC(=O)[C@@H]2C[C@@H](O)CN2C(=O)[C@@H](NC(=O)CN2CCC(c3ccc(-c4cc(-c5ccccc5O)nnc4N)cc3)CC2C)C(C)(C)C)cc1 (mixture of isomers) [Compound 35, (2S,4R)-1-((2S)-2-(2-(4-(4-(3-amino-6-(2-hydroxyphenyl)pyridazin-4-yl)phenyl)-2-methylpiperidin-1-yl)acetamido)-3,3-dimethylbutanoyl)-4-hydroxy-N-((S)-1-(4-(4-methylthiazol-5-yl)phenyl)ethyl)pyrrolidine-2-carboxamide]
SMARCA2
  Percent degradation SMARCA2: 97%
VCaP cells
  EC50: < 10 nM
SMARCA4
  Percent SMARCA4 degradation at 0.1 µM: 88%

## Cc1ncsc1-c1ccc([C@H](C)NC(=O)[C@@H]2C[C@@H](O)CN2C(=O)[C@@H](NC(=O)CN2CCC(c3ccc(-c4cc(-c5ccccc5O)nnc4N)cc3)C2)C(C)(C)C)cc1 (stereo partly drawn) [Compound 51, (2S,4R)-1-((2S)-2-(2-(3-(4-(3-amino-6-(2-hydroxyphenyl)pyridazin-4-yl)phenyl)pyrrolidin-1-yl)acetamido)-3,3-dimethylbutanoyl)-4-hydroxy-N-((S)-1-(4-(4-methylthiazol-5-yl)phenyl)ethyl)pyrrolidine-2-carboxamide]
SMARCA2
  Percent degradation SMARCA2: 95%
VCaP cells
  EC50: 10 to 100 nM
SMARCA4
  Percent SMARCA4 degradation at 0.1 µM: 24%
